The target of experiment [1] is full-length PknG with natural substrate GarA (Mycobacterium tuberculosis, UniProt P9WI73). Kind of experiment: Kinase Glo Plus luminescent end point inhibition assay. Format: biochemical. Particulars: tethered docking compounds assayed at 40 μM. A general note: Kinase-Glo reads ATP consumption through a luciferase reaction.
A further experiment addresses PknGΔTPRΔ73 mutant Y234L (Mycobacterium tuberculosis, UniProt P9WI73, Y234L). The experiment is classed as binding. Particulars: 100 µM.
The target in the next experiment is PknGΔTPRΔ73 mutant V235P (Mycobacterium tuberculosis, UniProt P9WI73, V235P). The experiment is classed as binding. The following applies: 100 µM.
Another experiment addresses PknGΔTPRΔ73 mutant I292G (Mycobacterium tuberculosis, UniProt P9WI73, I292G). Format: binding. The following applies: 100 µM.

Molecules are shown by their SMILES.

As for `CCN1CCCC1CNC(=O)Nc1sc2c(c1C(N)=O)CCCC2` (stereo not drawn) [T3], the kinase activity result in experiment [1] is “considerably diminished kinase activity”.

Take `NC(=O)c1c(N)c(C(=O)c2ccc(F)cc2)n2ccccc12` [B1]: the “shift in the melting temperature” value at PknGΔTPRΔ73 mutant Y234L, at PknGΔTPRΔ73 mutant V235P and on PknGΔTPRΔ73 mutant I292G was “no shift” in each case. On to `NC(=O)c1c(NC(=O)NCC2CCCO2)sc2c1CCCC2` (stereo not drawn) [T2], for which the kinase activity result in experiment [1] is “considerably diminished kinase activity”. On the same count and under the same terms, with `CC(C)c1ccc(C(=O)c2c(N)c(C(N)=O)c3ccccn23)cc1` [T1] the entry was “considerably diminished kinase activity”.

(Values after article PMC9344462 (Journal of Medicinal Chemistry, 2022).)
